Measured values reported in PubChem BioAssay (NCI).
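Growth conditions: 96-well plates. Treatment: test compound, 48 hours, 5 concentrations. Analysis: linear interpolation between bracketing concentrations; unreached endpoints set to highest concentration. Abbreviation: GI50, concentration required for 50% inhibition of growth. TGI: total growth inhibition.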

Experiments:
Assay in all cases: NCI anticancer screen, dose series, 48 h
RPMI-8226 leukemia = test system: RPMI-8226 leukemia
SK-MEL-28 melanoma = test system: SK-MEL-28 melanoma
HCT-15 colon = test system: HCT-15 colon
HCT-116 colon = test system: HCT-116 colon
RXF 393 renal = test system: RXF 393 renal
SR leukemia = test system: SR leukemia
NCI-H460 lung = test system: NCI-H460 lung
DU-145 prostate = test system: DU-145 prostate
SN12C renal = test system: SN12C renal
MOLT-4 leukemia = test system: MOLT-4 leukemia
BT-549 breast = test system: BT-549 breast
T-47D breast = test system: T-47D breast
786-0 renal = test system: 786-0 renal
HT29 colon = test system: HT29 colon
HOP-62 NSCLC = test system: HOP-62 NSCLC
SF-539 CNS = test system: SF-539 CNS
OVCAR-4 ovarian = test system: OVCAR-4 ovarian
NCI/ADR-RES ovarian = test system: NCI/ADR-RES ovarian
MCF7 breast = test system: MCF7 breast
HOP-92 NSCLC = test system: HOP-92 NSCLC
COLO 205 colon = test system: COLO 205 colon
SK-MEL-2 melanoma = test system: SK-MEL-2 melanoma
SNB-75 CNS = test system: SNB-75 CNS
SW-620 colon = test system: SW-620 colon
HS 578T breast = test system: HS 578T breast
LOX IMVI melanoma = test system: LOX IMVI melanoma
KM12 colon = test system: KM12 colon
A549 NSCLC = test system: A549 NSCLC
OVCAR-3 ovarian = test system: OVCAR-3 ovarian

In the case of CC(C)(C)c1[nH]nc2c1C(c1cc3ccccc3[nH]c1=O)Nc1cc(C(=O)Nc3ccc(Cl)cc3)ccc1N2 (configuration not stated), the TGI (RPMI-8226 leukemia) is reported as 5.27 µM, the GI50 (SK-MEL-28 melanoma) is reported as 3.76 µM and the TGI (SK-MEL-28 melanoma) is reported as 21.5 µM. For the same compound, the GI50 (HCT-15 colon) was > 28.8 µM, the TGI (HCT-15 colon) was > 100 µM and the GI50 (HCT-116 colon) was 3.11 µM. For the same compound, the TGI (HCT-116 colon) was 10.7 µM, the GI50 (RXF 393 renal) was 1.94 µM and the TGI (RXF 393 renal) was 3.7 µM. The GI50 (SR leukemia) was 2.56 µM, the TGI (SR leukemia) was > 24.9 µM and the GI50 (NCI-H460 lung) was 3.21 µM. For the same compound, the TGI (NCI-H460 lung) was 18.2 µM, the GI50 (DU-145 prostate) was 4.26 µM and the TGI (DU-145 prostate) was > 48.4 µM. It also gave a GI50 (SN12C renal) of 3.15 µM, a TGI (SN12C renal) of 14 µM and a GI50 (MOLT-4 leukemia) of 2.32 µM. The TGI (MOLT-4 leukemia) was 7.91 µM, the GI50 (BT-549 breast) was 2.37 µM and the TGI (BT-549 breast) was 6.65 µM. For the same compound, the GI50 (T-47D breast) was 2.5 µM, the TGI (T-47D breast) was 9.14 µM and the GI50 (786-0 renal) was 2.3 µM. The TGI (786-0 renal) was 5.54 µM, the GI50 (HT29 colon) was 3.46 µM and the TGI (HT29 colon) was 13 µM. The GI50 (HOP-62 NSCLC) was 3.14 µM, the TGI (HOP-62 NSCLC) was 10 µM and the GI50 (SF-539 CNS) was 2.34 µM. The TGI (SF-539 CNS) was 6.49 µM, the GI50 (OVCAR-4 ovarian) was 2.12 µM and the TGI (OVCAR-4 ovarian) was 6.96 µM. For the same compound, the GI50 (NCI/ADR-RES ovarian) was > 100 µM, the TGI (NCI/ADR-RES ovarian) was > 100 µM and the GI50 (MCF7 breast) was 2.55 µM. For the same compound, the TGI (MCF7 breast) was 15.3 µM, the GI50 (HOP-92 NSCLC) was 2.03 µM and the TGI (HOP-92 NSCLC) was 6.05 µM. For the same compound, the GI50 (COLO 205 colon) was 2.88 µM, the TGI (COLO 205 colon) was 6.46 µM and the GI50 (SK-MEL-2 melanoma) was 2 µM. For the same compound, the TGI (SK-MEL-2 melanoma) was 4.05 µM, the GI50 (SNB-75 CNS) was 2.27 µM and the TGI (SNB-75 CNS) was 6.51 µM. It also gave a GI50 (SW-620 colon) of 3.13 µM, a TGI (SW-620 colon) of 12.3 µM and a GI50 (HS 578T breast) of 2.38 µM. The TGI (HS 578T breast) was > 28.8 µM, the GI50 (LOX IMVI melanoma) was 2.98 µM and the TGI (LOX IMVI melanoma) was 9.21 µM. It also gave a GI50 (KM12 colon) of 3.33 µM, a TGI (KM12 colon) of 16.2 µM and a GI50 (A549 NSCLC) of 4.66 µM. The TGI (A549 NSCLC) was > 100 µM, the GI50 (OVCAR-3 ovarian) was 1.93 µM and the TGI (OVCAR-3 ovarian) was 3.82 µM.
